Results published in ChEMBL document CHEMBL4184242, “Synthesis and antibacterial studies of teixobactin analogues with non-isostere substitution of enduracididine” (2018).
Converted amounts (≈) assume the structure as drawn.

What was measured:
[1] = test system: Staphylococcus aureus; experiment: Antibacterial activity against methicillin-susceptible Staphylococcus aureus ATCC 29213 by CLSI M100-S17 protocol based broth dilution method; assay type: functional
[2] = test system: Staphylococcus aureus; experiment: Antibacterial activity against methicillin-resistant Staphylococcus aureus isolate SA1114 by CLSI M100-S17 protocol based broth dilution method; assay type: functional

CC[C@@H](C)[C@@H](NC(=O)[C@@H](CCC(N)=O)NC(=O)[C@H](CO)NC(=O)[C@@H](NC(=O)[C@@H](Cc1ccccc1)NC)[C@@H](C)CC)C(=O)N[C@H](C(=O)N[C@@H](CO)C(=O)N[C@H]1C(=O)N[C@@H](C)C(=O)N[C@@H](C2CCCCC2)C(=O)N[C@@H]([C@@H](C)CC)C(=O)O[C@H]1C)[C@@H](C)CC
MIC [1]: 0.25 µg/mL (≈ 0.204 µM) | MIC [2]: 1 µg/mL (≈ 0.815 µM)

CC[C@@H](C)[C@@H](NC(=O)[C@@H](CCC(N)=O)NC(=O)[C@H](CO)NC(=O)[C@@H](NC(=O)[C@@H](Cc1ccccc1)NC)[C@@H](C)CC)C(=O)N[C@H](C(=O)N[C@@H](CO)C(=O)N[C@H]1C(=O)N[C@@H](C)C(=O)N[C@@H](CC2CCCCC2)C(=O)N[C@@H]([C@@H](C)CC)C(=O)O[C@H]1C)[C@@H](C)CC
MIC [1]: 0.5 µg/mL (≈ 0.403 µM) | MIC [2]: 2 µg/mL (≈ 1.61 µM)

CC[C@@H](C)[C@@H](NC(=O)[C@@H](CCC(N)=O)NC(=O)[C@H](CO)NC(=O)[C@@H](NC(=O)[C@@H](Cc1ccccc1)NC)[C@@H](C)CC)C(=O)N[C@H](C(=O)N[C@@H](CO)C(=O)N[C@H]1C(=O)N[C@@H](C)C(=O)NC(C)(C)C(=O)N[C@@H]([C@@H](C)CC)C(=O)O[C@H]1C)[C@@H](C)CC
MIC [1]: ≥ 32 µg/mL | MIC [2]: ≥ 32 µg/mL

CCC[C@@H]1NC(=O)[C@H](C)NC(=O)[C@H](NC(=O)[C@H](CO)NC(=O)[C@@H](NC(=O)[C@H](NC(=O)[C@@H](CCC(N)=O)NC(=O)[C@H](CO)NC(=O)[C@@H](NC(=O)[C@@H](Cc2ccccc2)NC)[C@@H](C)CC)[C@H](C)CC)[C@@H](C)CC)[C@H](C)OC(=O)[C@H]([C@@H](C)CC)NC1=O
MIC [1]: 0.25 µg/mL (≈ 0.211 µM) | MIC [2]: 1 to 2 µg/mL (≈ 0.842 to 1.68 µM)

CC[C@@H](C)[C@@H](NC(=O)[C@@H](CCC(N)=O)NC(=O)[C@H](CO)NC(=O)[C@@H](NC(=O)[C@@H](Cc1ccccc1)NC)[C@@H](C)CC)C(=O)N[C@H](C(=O)N[C@@H](CO)C(=O)N[C@H]1C(=O)N[C@@H](C)C(=O)N[C@@H](CC2CC2)C(=O)N[C@@H]([C@@H](C)CC)C(=O)O[C@H]1C)[C@@H](C)CC
MIC [1]: 0.5 µg/mL (≈ 0.417 µM) | MIC [2]: 2 µg/mL (≈ 1.67 µM)

CCCC[C@@H]1NC(=O)[C@H](C)NC(=O)[C@H](NC(=O)[C@H](CO)NC(=O)[C@@H](NC(=O)[C@H](NC(=O)[C@@H](CCC(N)=O)NC(=O)[C@H](CO)NC(=O)[C@@H](NC(=O)[C@@H](Cc2ccccc2)NC)[C@@H](C)CC)[C@H](C)CC)[C@@H](C)CC)[C@H](C)OC(=O)[C@H]([C@@H](C)CC)NC1=O
MIC [1]: 0.5 µg/mL (≈ 0.416 µM) | MIC [2]: 2 µg/mL (≈ 1.66 µM)

CC[C@@H](C)[C@@H](NC(=O)[C@@H](CCC(N)=O)NC(=O)[C@H](CO)NC(=O)[C@@H](NC(=O)[C@@H](Cc1ccccc1)NC)[C@@H](C)CC)C(=O)N[C@H](C(=O)N[C@@H](CO)C(=O)N[C@H]1C(=O)N[C@@H](C)C(=O)N[C@H](CCCCN)C(=O)N[C@@H]([C@@H](C)CC)C(=O)O[C@H]1C)[C@@H](C)CC
MIC [1]: ≥ 32 µg/mL | MIC [2]: ≥ 32 µg/mL
